Measurements published in patent US20240050582A1, “CONJUGATES INCLUDING MULTIPLE SACCHARIDIC CHAINS ON A LINEAR PROTEIN AND USES IN MAMMALS FEED” (UNIVERSITEIT GENT, priority 2021, published 2024).
Read-outs that look alike come from different tables or passages of the source. Marks after values point to notes of the source that are not given here.

Legend:
F18+ E. coli = assay: Blocking assay with fluorescein conjugated A6-1 monomers; format: binding, Escherichia coli; conditions: pre-incubation 1 h; actual A6-1 12 μg/ml (CMCL, CMCM), 120 μg/ml (polylysine); monomeric A6-1 1 mg/ml
Procedure: A blocking assay was developed to understand inhibition. In this assay, F18+E. coli were first incubated for one hour at room temperature with either the carriers or A6-1 conjugates, while gently shaking. Concentrations used were chosen so that the actual A6-1 concentration was 12 μg/ml for A6-1 conjugated carriers CMCM and CMCL (and the similar concentration of non-conjugated carriers) or 120 μg/ml for the A6-1 conjugated carrier polylysine (A6-1-PL-14). […] Subsequently, fluorescein conjugated A6-1 monomers (A6-F) were added (1 mg/ml) for one hour at room temperature. The fluorescing oligosaccharide was labeled at the reducing end of the molecule with fluorescein (also named 6A1-FITC). Next free A6-1-fluorescein was washed away with PBS followed by centrifugation at 2000 g for 5 min and resuspensions of the pellet with PBS. This was repeated twice.
If carriers without A6-1 bind to the bacteria, they will block the binding of A6-F and no fluorescence-bound bacteria can be detected by fluorescence microscopy. If there is no binding of the carrier to the bacteria in the first step of the test, fluorescing bacteria will be seen. […]
As aforementioned, high non-AG based inhibition of most carriers was observed. […] Subsequently, fluorescence conjugated AG-1 monomers (AG-1-F) were added and binding of the fluorescing AG-1 to the bacteria was determined using a fluorescence microscope.

[1] = test system: F18+ E. coli (strain 107/86); conditions: for Average % inhibition: free A6-1 10 mg/ml (positive control); for Conjugate inhibition (M) / M − C (measure of the specific blockage of F18 fimbriae by A6) / Optimal inhibitory dose: A6 supplied via the conjugate / Optimal inhibitory dose: Carrier supplied via the conjugate: Table 9; for Conjugate inhibition (M): A6-1 conjugate of the carrier, at its optimal inhibitory dose; for M − C (measure of the specific blockage of F18 fimbriae by A6): difference conjugate inhibition minus carrier inhibition; for Optimal inhibitory dose: A6 supplied via the conjugate / Optimal inhibitory dose: Carrier supplied via the conjugate: in vitro
F18 E. coli [2] = assay: Part E: bacterial translocation in lymph nodes and spleen; conditions: AGP
β-hemolytic coliforms = format: in vivo, pig; conditions: AGP (50 mg/kg carbadox)
F18 E. coli [3] = assay: Part E: intestinal morphology; conditions: linear
F18 E. coli [4] = format: in vivo, pig; conditions: compared with positive control; P<0.05
[5] = test system: F18ac bacteria 2134P (STa+ STb+); assay: In vivo small intestinal segment perfusion model (SISP); parameters: species or system pig
[6] = d 5 PI, compared with the control, P<0.05

CC(=O)N[C@H]1[C@@H](O[C@H]2[C@@H](O)[C@@H](CO)O[C@@H](O[C@H]3[C@H](O)[C@@H](CO)O[C@@H](O[C@H]4[C@@H](O)[C@@H](CO)O[C@@H](O[C@H]5[C@H](O)[C@@H](O)C(O)O[C@@H]5CO)[C@@H]4O)[C@@H]3NC(C)=O)[C@@H]2O[C@@H]2O[C@@H](C)[C@@H](O)[C@@H](O)[C@@H]2O)O[C@H](CO)[C@H](O)[C@@H]1O (stereo partly drawn) [A6-1, GalNAcα1-3(Fucα1-2)Galβ1-3GlcNAcβ1-3Galβ1-4Glc, reference compound]
fluorescence of bacteria after A6-1-fluorescein (blocking of A6-F binding) (F18+ E. coli): completely abolished fluorescence
Average % inhibition ([1]; Table 8-A): 71.3%
Average % inhibition ([1]; Table 8-B CMCL type 1): 69.5%
Average % inhibition ([1]; Table 8-B CMCL type 2): 57.05%
Average % inhibition ([1]; Table 8-C CMCM type 1): 63.6%
Average % inhibition ([1]; Table 8-C CMCM type 2): 61.26%

COC(=O)N/N=C/c1c[n+]([O-])c2ccccc2[n+]1[O-] [AGP, carbadox]
Bacterial translocation, Lymph node (F18 E. coli [2]; d 5 PI): 147^ab cfu/g
Bacterial translocation, Spleen (F18 E. coli [2]; d 5 PI): 47 cfu/g
Bacterial translocation, Lymph node (F18 E. coli [2]; d 11 PI): 279^ab cfu/g
Bacterial translocation, Spleen (F18 E. coli [2]; d 11 PI): 56^b cfu/g
percentage of β-hemolytic coliform (β-hemolytic coliforms; d 2 PI): 31.56^b %
percentage of β-hemolytic coliform (β-hemolytic coliforms; d 5 PI): 8.79^b %
percentage of β-hemolytic coliform (β-hemolytic coliforms; d 8 PI): 2.77^b %
percentage of β-hemolytic coliform (β-hemolytic coliforms; d 11 PI): 2.10%

CNCCCCC(CNCCCCC(N)C(=O)NCCCCC(N)C(C)=O)NCC(O)C(O)C(O[C@@H]1OC(CO)[C@H](O)C(O[C@@H]2OC(CO)[C@@H](O)C(O[C@@H]3OC(CO)[C@H](O)C(O[C@H]4OC(CO)[C@H](O)C(O)C4NC(C)=O)C3O[C@@H]3OC(C)[C@@H](O)C(O)C3O)C2NC(C)=O)C1O)C(O)CO (stereo partly drawn) [Coligo A6PL]
ratio of villi height to crypt depth in jejunum (F18 E. coli [3]; [6]): enhanced
villi height, ratio of villi height to crypt depth, and villi area in ileum (F18 E. coli [3]; [6]): increased
villi height, ratio of villi height to crypt depth, villi width, and villi area in duodenum (F18 E. coli [3]; [6]): dose-dependently increased
ratio of villi height to crypt depth in jejunum and ileal villi height (F18 E. coli [3]; d 11 PI, P<0.10): tended to increase
feed efficiency from d 0 to 5 PI (F18 E. coli [4]): enhanced
net absorption of perfusion fluid ([5]; 2 μg/ml actual A6-1 (A6-1-PL-14), segment number 4): +0.03 g/cm^2
net absorption of perfusion fluid ([5]; 8 μg/ml actual A6-1 (A6-1-PL-14), segment number 5): +0.21 g/cm^2
net absorption of perfusion fluid ([5]; 32 μg/ml actual A6-1 (number 6) or the same concentration of polylysine (number 8)): 0 g/cm^2

Alginate [reference compound]
Conjugate inhibition (M) [1]: 41%
M − C (measure of the specific blockage of F18 fimbriae by A6) [1]: −15%
Optimal inhibitory dose: A6 supplied via the conjugate [1]: 0.6 µg/mL
Optimal inhibitory dose: Carrier supplied via the conjugate [1]: 0.081 mg/mL

Pectin [reference compound]
Conjugate inhibition (M) [1]: 64%
M − C (measure of the specific blockage of F18 fimbriae by A6) [1]: −5%
Optimal inhibitory dose: A6 supplied via the conjugate [1]: 1.2 µg/mL
Optimal inhibitory dose: Carrier supplied via the conjugate [1]: 0.25 mg/mL
